Measurements from patent US7741493B2, “Heterocyclic compounds as P2X7 ion channel blockers” (Aventis Pharmaceuticals Inc., priority 2003, dated 2010).
Values joined by “and” are separate entries in the source; they are usually repeats but may differ in a detail not shown here. Equal values may be shown once. Where a name gives a salt, the structure may show the parent alone. Read-outs that look alike come from different tables or passages of the source.

Molecular target: T1, P2X7 (Homo sapiens, UniProt Q99572)
T1 sequence (Q99572 1-595): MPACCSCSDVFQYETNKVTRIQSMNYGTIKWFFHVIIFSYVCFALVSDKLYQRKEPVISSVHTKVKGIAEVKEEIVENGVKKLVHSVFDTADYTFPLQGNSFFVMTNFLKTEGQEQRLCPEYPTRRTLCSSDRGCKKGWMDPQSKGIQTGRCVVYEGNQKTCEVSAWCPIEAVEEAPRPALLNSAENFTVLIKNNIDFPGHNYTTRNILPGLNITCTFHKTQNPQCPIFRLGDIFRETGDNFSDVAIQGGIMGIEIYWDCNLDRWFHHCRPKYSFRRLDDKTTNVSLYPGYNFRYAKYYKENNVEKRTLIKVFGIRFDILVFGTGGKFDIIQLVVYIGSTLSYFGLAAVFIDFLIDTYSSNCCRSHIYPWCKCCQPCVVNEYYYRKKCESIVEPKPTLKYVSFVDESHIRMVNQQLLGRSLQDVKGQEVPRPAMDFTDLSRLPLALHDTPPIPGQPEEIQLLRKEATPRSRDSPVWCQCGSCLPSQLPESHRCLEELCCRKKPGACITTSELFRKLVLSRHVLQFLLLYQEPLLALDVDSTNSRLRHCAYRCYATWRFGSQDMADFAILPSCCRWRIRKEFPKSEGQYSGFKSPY
Experiment: YO-PRO-1 dye uptake assay in U373 cells stably expressing P2X7
Type: cell-based
Design: The complete open reading frame of human P2X7 was amplified from Incyte clone 148057; expressed in transfected cells
Details: dye uptake through P2X7, U373 cells, 300 μM BzATP, 5 μM YO-PRO-1, test compounds 30 nM to 3 μM
Procedure, shortened: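 U373 cells stably expressing human P2X7 preincubated 20 min at 37° C. with compound (30 nM to 3 μM) in Mg/Ca-free HBSS. YO-PRO-1 (5 μM final) and BzATP (300 μM final) then added for 1.5 h at 37° C.; dye-uptake fluorescence compared with compound-free control.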

Structure (SMILES) | IC50 (read-out: IC50) | IC50 (IC50 (nM))
Cc1ccccc1CNC1=N[C@@H](c2ccccc2)[C@@H](c2ccccc2)N1 [cis-4,5-diphenyl-2-(2-methylbenzyl)amino-4,5-dihydro-1H-imidazole] | 243 nM | 
Clc1ccccc1CC1=N[C@H](c2ccccc2)[C@H](c2ccccc2)N1 [cis-4,5-diphenyl-2-(2-chlorobenzyl)-4,5-dihydro-1H-imidazole] | 163 nM and 160 nM | 
C[C@@H](C1=N[C@@H](c2ccccc2)[C@@H](c2ccccc2)N1)c1ccccc1 [trifluoroacetate] | 108 nM | 
c1ccc([C@H]2NC(CCc3ccccn3)=N[C@H]2c2ccccc2)cc1 [cis-4,5-diphenyl-2-[2-(2-pyridyl)ethyl)-4,5-dihydro-1H-imidazole] | 720 nM | 
c1ccc(CCCCC2=N[C@H](c3ccccc3)[C@H](c3ccccc3)N2)cc1 [2-[4-phenyl-butyl]-cis-4,5-diphenyl-4,5-dihydro-1H-imidazole trifluoroacetate] |  | 610 nM
Fc1ccc(CC2=N[C@@H](c3ccccc3)[C@@H](c3ccccc3)N2)c(Cl)c1 [trifluoroacetate] | 120 nM | 
Cc1ccccc1[C@H]1NC(NCc2ccc(F)cc2)=N[C@H]1c1ccccc1C [[cis-4,5-bis-(2-Methylphenyl)-4,5-dihydro-1H-imidazol-2-yl]-(4-fluorobenzyl)amine hydrochloride] | 139 nM | 
C[C@@]1(c2ccccc2)N=C(CCc2ccccc2)N[C@@H]1c1ccccc1 (relative stereo) [cis-4,5-diphenyl-4-methyl-2-(2-phenylethyl)-4,5-dihydro-1H-imidazole] | 22 nM | 
Cc1cccc(CSC2=N[C@@H](c3ccccc3)[C@@H](c3ccccc3)N2)c1 [cis-4,5-diphenyl-2-(3-methylbenzyl)thio-4,5-dihydro-1H-imidazole] | 722 nM | 
c1ccc(OCC2=N[C@@H](c3ccccc3)[C@@H](c3ccccc3)N2)cc1 [cis-4,5-diphenyl-2-phenoxymethyl-4,5-dihydro-1H-imidazole] | 612 nM | 
Cc1ccc([C@H]2NC(NCc3cccc(F)c3)=N[C@H]2c2ccc(C)cc2)cc1 [[cis-4,5-bis-(4-Methylphenyl)-4,5-dihydro-1H-imidazol-2-yl]-(3-fluorobenzyl)amine hydrochloride] | 134 nM | 
Clc1ccc(CNC2=N[C@@H](c3ccccc3)[C@@H](c3ccccc3)N2)cc1 [cis-4,5-diphenyl-2-(4-chlorobenzyl)amino-4,5-dihydro-1H-imidazole] | 471 nM | 
Fc1ccc(CC2=N[C@@H](c3ccccc3)[C@@H](c3ccccc3)N2)c(F)c1 [2-(2,4-Difluorobenzyl)-cis-4,5-diphenyl-4,5-dihydro-1H-imidazole trifluoroacetate] | 42 nM | 
Fc1cccc([C@H]2NC(CCc3ccccc3Cl)=N[C@H]2c2cccc(F)c2)c1 [2-[2-(2-Chlorophenyl)ethyl]-cis-4,5-bis-(3-fluorophenyl)-4,5-dihydro-1H-imidazole] | 140 nM | 
COc1cccc(CNC2=N[C@@H](c3ccccc3)[C@@H](c3ccccc3)N2)c1 [cis-4,5-diphenyl-2-(3-methoxybenzyl)amino-4,5-dihydro-1H-imidazole] | 386 nM | 
CC(C1=N[C@](C)(c2ccccc2)[C@H](c2ccccc2)N1)c1ccccc1 (relative stereo) [2-(1-Phenyl-1-ethyl)-cis-4,5-diphenyl-4-methyl-4,5-dihydro-1H-imidazole trifluoroacetate] | 68 nM | 
Fc1ccc(CC2=N[C@H](c3ccccc3)[C@H](c3ccccc3)N2)cc1 [cis-4,5-diphenyl-2-(4-fluorobenzyl)-4,5-dihydro-1H-imidazole] | 46 nM | 

Structure (SMILES) | IC50 (read-out: IC50) | IC50 (IC50 (nM))
Clc1cccc(CNC2=N[C@@H](c3ccccc3)[C@@H](c3ccccc3)N2)c1 [cis-4,5-diphenyl-2-(3-chlorobenzyl)amino-4,5-dihydro-1H-imidazole] | 164 nM | 
Fc1cccc([C@H]2NC(Cc3ccc(F)cc3F)=N[C@H]2c2cccc(F)c2)c1 [2-(2,4-Difluorobenzyl)-cis-4,5-bis-(3-fluorophenyl)-4,5-dihydro-1H-imidazole trifluoroacetate] | 409 nM | 
Fc1ccc(CNC2=N[C@@H](c3cccc(F)c3)[C@@H](c3cccc(F)c3)N2)cc1 [[cis-4,5-bis-(3-Fluorophenyl)-4,5-dihydro-1H-imidazol-2-yl]-(4-fluorobenzyl)amine hydrochloride] | 71 nM | 
Fc1cccc(F)c1CC1=N[C@@H](c2ccccc2)[C@@H](c2ccccc2)N1 [trifluoroacetate] | 966 nM | 
Fc1cccc([C@H]2NC(NCc3ccc(F)c(F)c3)=N[C@H]2c2cccc(F)c2)c1 [[cis-4,5-bis-(3-Fluorophenyl)-4,5-dihydro-1H-imidazol-2-yl]-(3,4-difluorobenzyl)-amine hydrochloride] | 71 nM | 
Ic1ccccc1CSC1=N[C@@H](c2ccccc2)[C@@H](c2ccccc2)N1 [cis-4,5-diphenyl-2-(2-iodobenzyl)thio-4,5-dihydro-1H-imidazole] | 647 nM | 
C[C@@]1(c2cccc(F)c2)N=C(NCc2ccc(F)cc2)N[C@@H]1c1cccc(F)c1 | 37 nM | 
C[C@@]1(c2ccc(F)cc2)N=C(NCc2cccc(F)c2)N[C@@H]1c1ccc(F)cc1 | 353 nM | 
Fc1ccccc1CCNC1=N[C@@H](c2ccccc2)[C@@H](c2ccccc2)N1 [(cis-4,5-Diphenyl-4,5-dihydro-1H-imidazol-2-yl)-[2-(2-fluorophenyl)ethyl]amine hydrochloride] | 87 nM | 
Fc1c(Cl)cccc1CC1=N[C@@H](c2ccccc2)[C@@H](c2ccccc2)N1 [trifluoroacetate] | 142 nM | 
Fc1ccccc1CNC1=N[C@@H](c2ccccc2)[C@@H](c2ccccc2)N1 [cis-4,5-diphenyl-2-(2-fluorobenzyl)amino-4,5-dihydro-1H-imidazole] | 409 nM | 
C[C@@]1(c2ccccc2)N=C(COCC2CCCC2)N[C@@H]1c1ccccc1 (relative stereo) [2-[(Cyclopentylmethoxy)methyl]-cis-4,5-diphenyl-4-methyl-4,5-dihydro-1H-imidazole hydrochloride] | 194 nM | 
C[C@@]1(c2ccccc2)N=C(CSCc2ccccc2)N[C@@H]1c1ccccc1 (relative stereo) [cis-4,5-diphenyl-4-methyl-2-[(benzylsulfanyl)methyl]-4,5-dihydro-1H-imidazole] | 525 nM | 
C[C@]1(c2ccccc2)N=C(Cc2ccc(F)c(F)c2)N[C@H]1c1ccccc1 (relative stereo) [2-(3,4-Difluorobenzyl)-cis-4,5-diphenyl-4-methyl-4,5-dihydro-1H-imidazole trifluoroacetate] | 19 nM | 
C[C@]1(c2ccccc2)N=C(OCC2CCCCC2)N[C@H]1c1ccccc1 (relative stereo) [2-(Cyclohexylmethoxy)-cis-4,5-diphenyl-4-methyl-4,5-dihydro-1H-imidazole trifluoroacetate] | 275 nM | 
CC(Cc1ccccc1)C1=N[C@@H](c2ccccc2)[C@@H](c2ccccc2)N1 (relative stereo) [2-[1-Methyl-2-phenylethyl]-cis-4,5-diphenyl-4,5-dihydro-1H-imidazole trifluoroacetate] | 570 nM | 
c1ccc(CCOCC2=N[C@@H](c3ccccc3)[C@@H](c3ccccc3)N2)cc1 [cis-4,5-diphenyl-2-[(2-phenethyloxy)methyl]-4,5-dihydro-1H-imidazole] | 768 nM | 
